Results taken from patent US11352391B2, “Compositions for inducing urinary voiding and defecation” (Dignify Therapeutics, LLC, priority 2017, dated 2022).
Where a SMILES comes first, the peptide text is derived from it.

What was measured:
[1] = Saline solubility of heptapeptides; format: physicochemical
Procedure: Heptapeptides A-K shown below in Table 1 (SEQ ID NOs: 1-11) were synthesized according to standard Fmoc-mediated solid-phase techniques and purified under typical C18 reverse-phase conditions.
Compounds D-K were considered to be insoluble in saline (<1 mg/mL).

[2] = biological target: T1, recombinant hNK2R expressed in CHO cells (Homo sapiens, UniProt P21452); experiment: Intracellular calcium mobilization (FLIPR) in CHO-hNK2 cells; format: cell-based
T1 sequence (P21452 1-398): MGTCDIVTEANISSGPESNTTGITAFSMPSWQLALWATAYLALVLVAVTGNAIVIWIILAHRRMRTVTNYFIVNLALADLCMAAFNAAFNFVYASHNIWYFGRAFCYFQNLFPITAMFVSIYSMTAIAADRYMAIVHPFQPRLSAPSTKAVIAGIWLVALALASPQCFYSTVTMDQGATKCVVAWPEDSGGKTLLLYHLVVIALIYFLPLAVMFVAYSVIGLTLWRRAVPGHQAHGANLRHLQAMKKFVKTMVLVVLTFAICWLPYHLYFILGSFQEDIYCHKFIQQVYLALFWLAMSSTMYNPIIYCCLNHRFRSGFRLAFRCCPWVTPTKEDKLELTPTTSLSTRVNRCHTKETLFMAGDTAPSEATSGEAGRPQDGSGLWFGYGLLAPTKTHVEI
Procedure: (§1) CHO-hNK1 and CHO-hNK2 cells were seeded into black walled clear-bottom 384-well plates) at a density of 10,000 and 15,000 cells per well in 50 μL culture media, respectively, and grown overnight at 37° C. in a humidified CO2-incubator. Cells were washed in washing buffer using the EMBLA 384 instrument, leaving 20 μL of buffer per well after the final aspiration. Cells were then incubated at 37° C. with the cytoplasmic Ca2+ indicator Fluo-4 AM (final concentration 1 μM) in assay buffer (20 mM HEPES, 145 mM NaCl, 5 mM KCl, 5.5 mM glucose, 1 mM MgCl2 and 2 mM CaCl2, pH 7.4, 0.05% Pluronic F-127 and 0.1% BSA) containing 2.5 mM probenecid for […] (cell loading). Cells were then washed 3 times in washing buffer (20 mM HEPES, 145 mM NaCl, 5 mM KCl, 5.5 mM glucose, 1 mM MgCl2 and 2 mM CaCl2, pH 7.4 and 2.5 mM probenecid) using the EMBLA 384 instrument, leaving 30 μL of buffer in each well after the last wash. Loaded cell plates were transferred to the FLIPR machine and calcium responses were monitored as described below. A dual read-out FLIPR protocol was used, allowing for characterization of both agonist and antagonist profiles. For quality control, in each compound plate the signal was monitored by evaluating the responses to the reference standards (NKA and Substance P).
(§2) Concentration response curves of compounds were run in duplicate on two different occasions from the same stock solutions. Test solutions were prepared from 10 mM stock solutions in DMSO and 1 μL of each solution was stamped into V-bottom assay plates containing 49 μL assay buffer. The final concentration of DMSO was 0.5% in each well.

[3] = biological target: recombinant hNK1R expressed in CHO cells (Homo sapiens, UniProt P25103); experiment: Intracellular calcium mobilization (FLIPR) in CHO-hNK1 cells; format: cell-based; conditions: calcium mobilization, CHO-hNK1 cells; read-out: hNK1 EC50
Procedure: as §1, §2

anesthetized dog = experiment: Colorectal pressure manometry in anesthetized dog; format: in vivo
Procedure: Animal preparation: Naïve beagle dogs were fasted for 12-24 hours and received a warm water enema the night prior to, and the morning of, the experiment to clear the rectum and lower colon of feces. The day of the experiment, a 20 gauge IV catheter (Terumo Surflo) was placed in the cephalic vein for anesthetic induction (propofol, 10 mg/kg; IV) and delivery of IV fluids (5-10 ml/kg/hr) and compounds. The sedated dog was intubated with a 5-6 Fr tracheal tube and was maintained on 2-3% isoflurane via a ventilator (15-25 breaths/min; tidal volume […]) for the remainder of the experiment.
Bowel contractility: For colorectal pressure manometry, an ˜3 inch balloon catheter was inserted into the rectum and secured to the tail with tape. This catheter was connected via a three-way stopcock to a pressure transducer (UTAH MEDICAL PRODUCTS; DelTran II) for pressure recording. Data were recorded using PowerLab/8SP acquisition system using LabChart software (version 7.3.7; ADINSTRUMENTS, Australia). Arterial pressure, ECG, temperature and blood oxygen saturation (spO2) were monitored throughout the experiment (MEDTRONIC LIFEPAK12). Dogs were recovered in a quiet room under veterinary supervision.

[4] = biological target: human NK1 Receptor (hNK1R) (Homo sapiens, UniProt P25103); experiment: [3H]-septide radioligand competition binding to human recombinant NK1Rs (CHO-hNK1 membranes); conditions: displacement of 5.0 nM [3H]-septide, CHO-hNK1 membranes; read-out: hNK1 binding Ki
Procedure: (§3) After removal of the supernatant the cell pellet was washed and collected by re-suspension in PBS and centrifugation.
(§4) Frozen pellets were thawed and homogenized in 10 volumes (w/v) of membrane preparation buffer (50 mM HEPES pH 7.4, 1 mM EDTA, 50 μg/mL bacitracin and protease inhibitors) using a Polytron Ultraturrax (twice for 15 s per cycle). […] Protein concentration was determined using BioRad Protein Assay (Milan, Italy) with a BSA standard curve.

[5] = biological target: T2, human NK2 Receptor (hNK2R) (Homo sapiens, UniProt P21452); experiment: [125I]-NKA radioligand competition binding to human recombinant NK2Rs (CHO-hNK2 membranes)
T2 sequence (P21452 1-398): T1 sequence (P21452 1-398)
Procedure: as §3, §4

Chain of recombinant hNK1R expressed in CHO cells (P25103 whole entry): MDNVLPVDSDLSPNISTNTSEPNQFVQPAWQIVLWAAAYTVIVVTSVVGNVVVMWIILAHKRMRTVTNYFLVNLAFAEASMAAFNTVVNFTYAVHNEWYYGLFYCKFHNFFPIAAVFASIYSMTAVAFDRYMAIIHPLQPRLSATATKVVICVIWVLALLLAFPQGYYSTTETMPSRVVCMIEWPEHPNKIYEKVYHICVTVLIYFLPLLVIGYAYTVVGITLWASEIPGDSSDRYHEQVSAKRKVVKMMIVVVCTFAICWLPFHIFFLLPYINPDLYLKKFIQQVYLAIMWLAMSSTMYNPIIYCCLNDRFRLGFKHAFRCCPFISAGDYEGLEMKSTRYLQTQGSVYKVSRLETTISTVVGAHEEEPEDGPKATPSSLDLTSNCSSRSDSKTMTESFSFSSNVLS
Chain of human NK1 Receptor (hNK1R) (P25103 whole entry): as above

- solubility [1]: > 20 mg/mL
- EC50 ([2]; calcium mobilization, CHO-hNK2 cells, read-out: hNK2 EC50): 0.08 nM
- hNK2 selectivity ratio ([2]; ratio of EC50s hNK1R/hNK2R): 70
- EC50 [3]: 5.84 nM
- Ki [4]: 331 nM
- Ki ([5]; displacement of 0.1 nM [125I]-NKA, CHO-hNK2 membranes, read-out: hNK2 binding Ki): 0.59 nM
- hNK2 selectivity ratio ([5]; ratio of Kis hNK1R/hNK2R): 557.83
Structure (SMILES): CCCC[C@H](NC(=O)[C@H](CC(C)C)N(C)C(=O)CNC(=O)[C@@H](NC(=O)[C@H](Cc1ccccc1)NC(=O)[C@H](CCCNC(=N)N)NC(=O)[C@@H](N)CC(=O)O)C(C)C)C(N)=O [Compound B, Asp-Arg-Phe-Val-Gly-(NMe-Leu)-Nle-NH2] (HELM PEPTIDE1{D.R.F.V.G.[meL].[Nle].[am]}$$$$V2.0; N-terminus assumed)
- duration of colorectal pressure response (anesthetized dog; IV bolus (B and E 3 μg/kg; G 3, 30 and 66 ug/kg)): approximately 7 minutes
- duration of colorectal pressure response (anesthetized dog; SC 30 μg/kg): over 30 minutes
- onset of increase in colorectal pressure (anesthetized dog; both IV bolus 3 μg/kg and SC 30 μg/kg): ≤ 3 min
